Patent US3975535A, “Anti-allergic-3-carboxy-isocoumarin compositions and methods of use” (Beecham Group Limited, priority 1973, dated 1976)

System: PCA responses
Assay: Rat Passive Cutaneous Anaphylaxis (PCA) test
Assay type: in vivo, Wistar rats
Description: All of the compounds prepared in the preceding Examples were submitted for biological testing. The test system was the Rat Passive Cutaneous Anaphylaxis (PCA) test described below in (ii).
i. Serum containing heat labile homocytotropic antibody was raised in rats by a method similar to that used by Mota. (I. Mota Immunology 1964, 7, 681).
Male Wistar rats of 250-300g. were injected intraperitoneally with 0.5 of Bordatella pertussis vaccine (containing 4 × 10^10 dead organism per ml) and subcutaneously with 0.5ml of an emulsion of 100mg. of ovalbumin in 2ml of saline and 3ml of incomplete Freunds' adjuvant. Rats were bled by cardiac puncture on day 18, the blood was pooled and separated and serum stored at -20° and thawed only once before use.
ii. The P.C.A. test was similar to that described by Ovary and Bier (A. Ovary and O. E. Bier, Proc. Soc. Exp. Biol. Med. 1952, 81, 584) and Goose and Blair (J. Goose and AMJ. N. Blair, Immunology 1969, 16, 769).
0.1ml of each of six twofold serial dilutions of the serum in 0.9% saline were injected intradermally into separate sites on the shaved dorsal surface of 250-350g. Wistar rats. 72 hours later the animals were challenged by i.v. injection of 0.3ml of 1% ovalbumin mixed with 0.1ml of a 5% solution of pontamine sky blue dye both in isotonic saline buffered with pH. 7.2 Sorenson buffer (P.B.S.). The rats were killed after 20 minutes and the diameter of the blue wheals at the antibody injection sites were measured. The starting dilution of the serum was adjusted so that there was no response, after challenge, at the site of injection of the highest dilution and a maximum response at the lowest dilution. Typically, six twofold serial dilutions of the serum from 1/4 to 1/128 were used.
Compounds were tested for their ability to reduce the diameter of the wheals at the injection sites of dilutions of antibody which on all the controls have less than maximum response. Amounts of the compounds were administered to rats each amount to a test group of six animals at a specified time prior to intravenous challenge with ovalbumin. The diameters of the blue wheals which developed on the tests group of animals were compared with those on a control group of six animals treated in the same way as the test group, but which had not received the compound under test.
% Inhibition of P.C.A. = 100 (1 - a/b)
a = The mean of the sum of the diameters of the wheals produced in the test group of animals at those antibody sites where all the control group of animals gave less than maximum response.
b = The mean of the sum of diameters of the wheals produced in the control group of animals at those antibody sites where all the animals in the group gave less than maximum response.
The preferred method of administration was a solution of the test compound dissolved in pH 7.2 buffer and neutralised with sodium bicarbonate.

[1] = iv, time 0 mins prior to i.v. ovalbumin challenge
[2] = iv, time 30 mins prior to i.v. ovalbumin challenge
[3] = first dose pair, only one time (0) printed for the whole line
[4] = second dose pair, time not printed separately
[5] = iv, time 60 mins prior to i.v. ovalbumin challenge
[6] = iv, time 10 mins prior to i.v. ovalbumin challenge

Row | SMILES | inhibition at 25 mg/kg [1] [%] | inhibition at 25 mg/kg [2] [%] | inhibition at 100 mg/kg [1] [%] | inhibition at 100 mg/kg [2] [%] | other results
1 | O=C(O)c1cc2ccccc2c(=O)o1 [Example 1, Isocoumarin-3-carboxylic acid] | 29 | -13 | 62 | 16 | –
2 | Cc1c(C(=O)O)oc(=O)c2ccccc12 [Example 2, 4-Methylisocoumarin-3-carboxylic acid] | -3 | 0 | 41 | 10 | –
3 | Cc1cccc2cc(C(=O)O)oc(=O)c12 [Example 3, 8-Methylisocoumarin-3-carboxylic acid] | – | – | – | – | inhibition at 25 mg/kg [3]: 44%; inhibition at 25 mg/kg [4]: 15%; inhibition at 100 mg/kg [3]: 66%; inhibition at 100 mg/kg [4]: 28%
4 | Cc1c(C(=O)O)oc(=O)c2c(C)cccc12 [Example 4, 4,8-Dimethylisocoumarin-3-carboxylic acid] | 10 | 8 | 12 | 48 | –
5 | COc1ccc2cc(C(=O)O)oc(=O)c2c1 [Example 5, 7-Methoxyisocoumarin-3-carboxylic acid] | 9 | – | 9 | – | inhibition at 25 mg/kg [5]: 4%; inhibition at 100 mg/kg [5]: 55%
6 | O=C(O)c1cc2ccc(Br)cc2c(=O)o1 [Example 6, 7-Bromoisocoumarin-3-carboxylic acid] | 26 | – | 39 | – | inhibition at 25 mg/kg [5]: 39%; inhibition at 100 mg/kg [5]: 0%
7 | Cc1cc2c(C)c(C(=O)O)oc(=O)c2cc1C [Example 7, 4,6,7-Trimethylisocoumarin-3-carboxylic acid monohydrate] | 10 | 39 | 15 | 49 | –
8 | COc1cc2cc(C(=O)O)oc(=O)c2cc1OC [Example 8, 6,7-Dimethoxyisocoumarin-3-carboxylic acid] | 64 | 24 | 84 | 24 | –
9 | O=C(O)c1cc2ccccc2c(=O)[nH]1 [Example 9, Isocarbostyril-3-carboxylic acid] | 21 | 15 | 36 | 25 | –
10 | Cc1c(C(=O)O)[nH]c(=O)c2ccccc12 [Example 10, 4-Methylisocarbostyril-3-carboxylic acid] | 12 | -13 | 26 | 21 | –
11 | COc1cc2cc(C(=O)O)[nH]c(=O)c2cc1OC [Example 11, 6,7-Dimethoxyisocarbostyril-3-carboxylic acid] | 11 | 2 | 38 | 17 | –
12 | O=C(O)c1cc2ccccc2c(=O)s1 [Example 12, 2-Thiaisocoumarin-3-carboxylic acid] | 0 | – | 22 | – | inhibition at 25 mg/kg [5]: 4%; inhibition at 100 mg/kg [5]: 14%
13 | Cc1c(C(=O)O)sc(=O)c2ccccc12 [Example 13, 4-Methyl-2-thiaisocoumarin-3-carboxylic acid] | -6 | – | 6 | – | inhibition at 25 mg/kg [5]: 6%; inhibition at 100 mg/kg [5]: 19%
14 | COc1cc2cc(C(=O)O)sc(=O)c2cc1OC [Example 14, 6,7-Dimethoxy-2-thiaisocoumarin-3-carboxylic acid] | – | – | – | – | inhibition at 12.5 mg/kg (iv, Dose 12.5 mg/Kg, time 10 mins prior to i.v. ovalbumin challenge): 28%; inhibition at 25 mg/kg [6]: 47%; inhibition at 50 mg/kg (iv, Dose 50 mg/Kg, time 10 mins prior to i.v. ovalbumin challenge): 79%; inhibition at 100 mg/kg [6]: 87%
15 | COc1ccc2cc(C(=O)O)oc(=O)c2c1OC [Example 15, 7,8-Dimethoxyisocoumarin-3-carboxylic acid] | – | 12 | – | 29 | inhibition at 25 mg/kg [6]: 64%; inhibition at 100 mg/kg [6]: 63%
